Laboratory results published in patent publication US20220153766A1, “CONDENSED TRICYCLIC COMPOUND USED AS KINASE INHIBITOR” (Hangzhou Innogate Pharma Co., Ltd., priority 2019, published 2022).

Legend:
[1] = target: EGFR (T790M/L858R/C797S) (Homo sapiens, UniProt P00533, C797S/L858R/T790M); assay: EGFR (T790M/L858R/C797S) kinase activity inhibition, Caliper mobility shift assay; type: biochemical; conditions: kinase 2.5 nM, ATP 40 μM
Method: The basic method is the same as ALK activity test method 2. The test concentration of the compound starts at 2 μM, and is diluted 5 folds into 6 (7 for individual compounds) concentration points. […] Add 30 μL of stop solution containing EDTA to stop the kinase reaction. Use Caliper EZ Reader to read the conversion rate. Inhibition rate %=(Average positive control conversion rate %−Sample conversion rate %/(Average positive control conversion rate %−Average negative control conversion rate %). Among them: negative control wells represent the conversion rate readings without enzyme activity; positive control wells represent the conversion rate readings of wells without compound inhibition. Take the log value of the concentration as the X-axis, and the percentage inhibition rate on the Y-axis. Log (inhibitor) vs. response—Variable slope of analysis software GraphPad Prism 5 was used to fit the curve to obtain the IC50 value of each compound on the enzyme activity. Calculation formula: Y=Bottom+(Top−Bottom)/(1+10^((Log IC50−X)*HillSlope)).

[2] = target: MAP4K1 (HPK1) (Homo sapiens, UniProt Q92918); assay: MAP4K1 (HPK1) kinase activity inhibition, Caliper mobility shift assay; type: biochemical; conditions: kinase 1.25 nM, ATP 10.1 μM
MAP4K1 (HPK1), sequence (Q92918 whole entry): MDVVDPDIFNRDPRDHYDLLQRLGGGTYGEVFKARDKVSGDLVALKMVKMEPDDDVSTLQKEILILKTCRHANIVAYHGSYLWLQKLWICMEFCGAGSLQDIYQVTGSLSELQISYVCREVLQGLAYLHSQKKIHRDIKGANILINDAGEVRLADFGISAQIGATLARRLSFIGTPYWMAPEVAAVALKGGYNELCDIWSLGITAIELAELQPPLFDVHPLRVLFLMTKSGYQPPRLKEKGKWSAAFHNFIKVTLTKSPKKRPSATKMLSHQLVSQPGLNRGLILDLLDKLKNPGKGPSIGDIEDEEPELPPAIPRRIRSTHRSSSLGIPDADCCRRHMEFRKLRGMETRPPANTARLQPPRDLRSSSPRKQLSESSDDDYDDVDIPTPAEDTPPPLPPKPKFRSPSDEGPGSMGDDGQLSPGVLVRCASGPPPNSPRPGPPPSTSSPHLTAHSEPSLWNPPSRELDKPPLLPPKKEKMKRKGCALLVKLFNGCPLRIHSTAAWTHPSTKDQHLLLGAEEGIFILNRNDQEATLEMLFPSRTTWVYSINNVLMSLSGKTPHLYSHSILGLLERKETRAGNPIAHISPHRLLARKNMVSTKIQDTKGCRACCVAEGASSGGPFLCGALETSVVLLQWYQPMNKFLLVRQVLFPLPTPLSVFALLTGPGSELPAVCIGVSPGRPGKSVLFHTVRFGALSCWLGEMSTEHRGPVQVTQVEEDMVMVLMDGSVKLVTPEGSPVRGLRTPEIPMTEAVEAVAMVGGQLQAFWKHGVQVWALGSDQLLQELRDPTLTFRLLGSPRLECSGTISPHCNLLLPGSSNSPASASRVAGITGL
Method: 4. MAP4K1 (HPK1) Kinase Activity Inhibition Experiment: Caliper mobility shift assay was used to detect the inhibitory effect of the compound on MAP4K1 (HPK1) kinase activity. The test concentration of the compound starts at 500 nM, and is diluted 5 folds into 5 concentration points. Use a dispenser Echo 550 to transfer 250 nL 100-fold final concentration of the compound to the target plate 3573, add 10 μL of MAP4K1 (HPK1) kinase solution with a final concentration of 1.25 nM, and incubate for 10 minutes at room temperature (the negative control well contains 10 μL kinase buffer and 250 nL 100% DMSO; the positive control well contains 10 μL kinase solution and 250 nL 100% DMSO). On the kinase MAP4K1 (HPK1), add 15 μL of ATP with a final concentration of 10.1 μM and 3 μM substrate peptide No. 25 mixed solution to react for 120 minutes. Add 30 μL of stop solution containing EDTA to stop the kinase reaction. Use Caliper EZ Reader to read the conversion rate. Inhibition rate %=(Average positive control conversion rate %−Sample conversion rate %/(Average positive control conversion rate %−Average negative control conversion rate %). Among them: negative control wells represent the conversion rate readings without enzyme activity; positive control wells represent the conversion rate readings of wells without compound inhibition. Take the log value of the concentration as the X-axis, and the percentage inhibition rate on the Y-axis. Log (inhibitor) vs. response—Variable slope of analysis software GraphPad Prism 5 was used to fit the curve to obtain the IC50 value of each compound on the enzyme activity. Calculation formula: Y=Bottom+(Top−Bottom)/(1+10 ^((Log IC50−X)*HillSlope)).

[3] = target: T1, Ba/F3_EGFR del19/T790M/C797S cells (Homo sapiens, UniProt P00533, T790M/C797S, cells depend on it, form not given); assay: Ba/F3_EGFR (del19-T790M-C797S) cell proliferation inhibition, CTG, method 2; type: cell-based; conditions: 2000 cells/well, 72 h, read-out: Ba/F3_EGFR (del19-T790M-C797S) cell proliferation inhibition (IC50 value) Method 2
T1 sequence (P00533 with tags, fused parts or gaps DEL746-750/T790M/C797S, form open): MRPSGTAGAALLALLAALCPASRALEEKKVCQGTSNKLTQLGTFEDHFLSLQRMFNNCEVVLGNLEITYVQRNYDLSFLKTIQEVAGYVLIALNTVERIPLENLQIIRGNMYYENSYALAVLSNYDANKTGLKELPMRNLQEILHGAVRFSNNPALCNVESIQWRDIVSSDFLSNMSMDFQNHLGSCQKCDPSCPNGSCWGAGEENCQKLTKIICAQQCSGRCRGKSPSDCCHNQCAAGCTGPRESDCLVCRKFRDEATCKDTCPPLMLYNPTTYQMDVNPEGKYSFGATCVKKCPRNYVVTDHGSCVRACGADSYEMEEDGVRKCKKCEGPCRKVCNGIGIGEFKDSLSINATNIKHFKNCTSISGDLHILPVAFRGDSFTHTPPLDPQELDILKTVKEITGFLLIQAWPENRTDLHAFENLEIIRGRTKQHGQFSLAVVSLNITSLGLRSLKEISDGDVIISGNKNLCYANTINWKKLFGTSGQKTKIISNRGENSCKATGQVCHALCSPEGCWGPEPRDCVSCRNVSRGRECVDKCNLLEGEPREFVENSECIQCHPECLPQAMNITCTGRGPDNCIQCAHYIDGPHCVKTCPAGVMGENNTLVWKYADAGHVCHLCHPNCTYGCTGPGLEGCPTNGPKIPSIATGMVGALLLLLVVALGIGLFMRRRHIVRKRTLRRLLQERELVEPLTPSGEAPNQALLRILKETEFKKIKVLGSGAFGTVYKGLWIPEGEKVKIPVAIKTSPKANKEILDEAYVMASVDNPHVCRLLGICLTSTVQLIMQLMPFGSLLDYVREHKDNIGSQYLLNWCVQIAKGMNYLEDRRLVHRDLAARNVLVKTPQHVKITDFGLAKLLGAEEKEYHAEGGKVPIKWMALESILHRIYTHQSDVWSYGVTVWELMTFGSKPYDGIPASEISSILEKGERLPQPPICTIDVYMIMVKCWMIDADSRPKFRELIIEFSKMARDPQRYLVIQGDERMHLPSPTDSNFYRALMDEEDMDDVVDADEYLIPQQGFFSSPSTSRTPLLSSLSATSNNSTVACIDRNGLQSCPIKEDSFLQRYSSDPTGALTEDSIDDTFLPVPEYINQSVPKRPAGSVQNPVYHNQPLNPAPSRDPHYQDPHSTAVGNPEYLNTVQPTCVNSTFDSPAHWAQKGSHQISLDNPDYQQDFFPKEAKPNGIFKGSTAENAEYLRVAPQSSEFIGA
Method: Take a small amount of cells and count them with ViCell. 2) Adjust the cell density, inoculate the cells in a 384-well plate at 2000/well, and incubate in a 37° C., 5% CO2 incubator for 4 hours. 3) Set up the program of Tecan HP D300, add the compound to the well plate. The maximum initial concentration of the compound is 1-4 μM, 3 folds dilution, 9 concentrations, and the DMSO content in each well is unified to 0.2%.
CTG method detection: 1) Take out the CTG reagent and cell plate and equilibrate at room temperature for 30 min, add 25 μL CTG to each well, shake at medium speed for 2 min, centrifuge at 1000 rpm for 1 minutes, and stand still at room temperature for 10 minutes. 2) Envision instrument reads the chemiluminescence signal value.
Data analysis: IC50 results are analyzed by IDBS's XL-fit 5.0 software.

[4] = Pharmacokinetic study in rats after intragastrical administration; type: in vivo; conditions: male, rat, plasma, po, SD rats, 3 mg/kg; for AUC(0-t): read-out: AUC0-24 h
Method: Example 55: Pharmacokinetic Study in Rats
Instruments: XEVO TQ-S LC/MS instrument produced by Waters. All measurement data is collected and processed by Masslynx V4.1 software, and the data is calculated and processed by Microsoft Excel. Using WinNonLin 8.0 software, the statistical moment method was used to calculate the pharmacokinetic parameters. Mainly include kinetic parameters Tmax, T1/2, Cmax, AUClast etc. […] Injection volume: 5 μL.
Animals: 3 male SD rats with a weight range of 200-220 g. After purchase, they will be kept in the laboratory of the Experimental Animal Center for 2 days and then used. They will be fasted for 12 hours predose and 4 hours after dosing. Drinking water is free during the test. After the rats were gavage, blood samples were taken according to the established time point.
Solvent: 0.5% Methylcellulose (aqueous solution containing 0.4% Tween 80 and 1% ethanol). Preparation of the solution for intragastrical administration: accurately weigh the compound, add it to the solvent, and ultrasonically at room temperature for 5 minutes to completely dissolve the drug, and prepare a 0.3 mg/ml medicinal solution.
Pharmaceutical samples: representative compounds of the structure shown in the patented formula (I) of the present invention, generally, multiple samples with similar structures (with a molecular weight difference of more than 2 units) are taken, accurately weighed, and administered together (cassette PK). In this way, multiple compounds can be screened at the same time and their oral absorption rates can be compared. A single administration was also used to study the pharmacokinetics of the drug sample in rats.
After intragastrical administration, blood was taken from the orbit at 0.25, 0.5, 1, 2, 4, 9, 12 and 24 hours, and placed in a plastic centrifuge tube pretreated with sodium heparin. After centrifugation, the supernatant plasma was used for LC-MS/MS analysis.
Accurately weigh the compounds to prepare different concentrations, perform quantitative analysis on mass spectrometry to establish a standard curve, and then test the concentration of the above-mentioned compound in the plasma to obtain the compound concentration at different time points. All measurement data are collected and processed by relevant software, and the statistical moment method is used to calculate the pharmacokinetic parameters (mainly including kinetic parameters Tmax, T1/2, Cmax, AUClast etc). The results are as follows:
Table 7: Pharmacokinetic Parameters of the Compounds after Intragastrical Administration in SD Rats

[5] = target: T1, Ba/F3_EGFR del19/T790M/C797S cells; assay: Ba/F3_EGFR (del19-T790M-C797S) cell proliferation inhibition, CTG, method 1; type: cell-based
Method: The cells were cultured in a 37° C., 5% CO2 incubator.
Cell plating and compound treatment: 1) Cells are routinely cultured until the cell saturation is 80%-90%, and when the number reaches the requirement, the cells are collected. 2) Resuspend in the corresponding fresh medium, take a small amount of cells to count, and prepare a cell suspension with a suitable density. 3) Inoculate the cell suspension into a 384-well plate at 700 cells/well, 30 μL per well. 4) Use Echo to add the compound to the corresponding cell well. The maximum starting concentration of the compound is 1-10 μM, 3 folds dilution, 8 concentrations.
CTG method detection: 1) Add 30 μL of CTG reagent (CelltiterGlo kit) to each well, and let it stand for 30 minutes at 37° C. and 5% CO2 in the dark. 2) Use Envision instrument to read the chemiluminescence signal value.
Data analysis: IC50 results are analyzed by GraphPad Prism 6 software. […] X: log value of compound concentration; Y: inhibition rate (% inhibition); inhibition rate (% inhibition)=(blank control well reading−compound well reading)/(blank control well reading−positive control reading)×100.

[6] = target: EGFR (C797S) (Homo sapiens, UniProt P00533, C797S); assay: EGFR (C797S) kinase activity inhibition, Lantha screen Assay; type: biochemical; conditions: kinase 10 nM, ATP 0.1 μM
Method: 1. EGFR (C797S) Kinase Activity Inhibition Experiment: The Lantha screen Assay method was used to test the inhibitory activity of the compounds at a kinase EGFR (C797S) concentration of 10 nM and an ATP concentration of 0.1 μM. The control samples were Staurosporine. Experimental Steps: […] 2) Control sample Staurosporine and test samples preparation: Staurosporine and the compounds of the embodiment of the present invention are formulated into a gradient concentration solution in 100% DMSO, and diluted to 10% DMSO with the above-mentioned buffer, and added to a 384-well plate. For example, if the initial concentration of the compound is 10 μM, 100% DMSO is used to prepare a 1000 μM solution, and 10 concentration gradients are diluted, and 100 nL solution is transferred to a 384-well plate with Echo*LIQUID HANDLE RS (LABCYTE, USA). […] Transfer 5 μL to the 384-well plate and incubate with the compound for 10-15 minutes. […] Transfer 5 μL to the 384-well plate to initiate the reaction, and incubate at room temperature for 30 minutes. [table] 5) Use TR-Fret dilution buffer to prepare 2-fold detection solution. The final concentration of Antibody is 2 nM and the final concentration of EDTA is 10 mM. Transfer 10 μL of detection solution to the reaction wells of the 384-well plate, shake and mix, and incubate at room temperature for 60 min. 6) Read the ratio of excitation at 340 nm and emission at 520 nm to 495 nm on Envision, and calculate the inhibition rate. 7) Fit IC50 with XL-fit software.

[7] = target: ALK (Homo sapiens, UniProt Q9UM73); assay: ALK kinase activity inhibition, Caliper mobility shift assay, method 1; type: biochemical
ALK, sequence (Q9UM73 19-1620): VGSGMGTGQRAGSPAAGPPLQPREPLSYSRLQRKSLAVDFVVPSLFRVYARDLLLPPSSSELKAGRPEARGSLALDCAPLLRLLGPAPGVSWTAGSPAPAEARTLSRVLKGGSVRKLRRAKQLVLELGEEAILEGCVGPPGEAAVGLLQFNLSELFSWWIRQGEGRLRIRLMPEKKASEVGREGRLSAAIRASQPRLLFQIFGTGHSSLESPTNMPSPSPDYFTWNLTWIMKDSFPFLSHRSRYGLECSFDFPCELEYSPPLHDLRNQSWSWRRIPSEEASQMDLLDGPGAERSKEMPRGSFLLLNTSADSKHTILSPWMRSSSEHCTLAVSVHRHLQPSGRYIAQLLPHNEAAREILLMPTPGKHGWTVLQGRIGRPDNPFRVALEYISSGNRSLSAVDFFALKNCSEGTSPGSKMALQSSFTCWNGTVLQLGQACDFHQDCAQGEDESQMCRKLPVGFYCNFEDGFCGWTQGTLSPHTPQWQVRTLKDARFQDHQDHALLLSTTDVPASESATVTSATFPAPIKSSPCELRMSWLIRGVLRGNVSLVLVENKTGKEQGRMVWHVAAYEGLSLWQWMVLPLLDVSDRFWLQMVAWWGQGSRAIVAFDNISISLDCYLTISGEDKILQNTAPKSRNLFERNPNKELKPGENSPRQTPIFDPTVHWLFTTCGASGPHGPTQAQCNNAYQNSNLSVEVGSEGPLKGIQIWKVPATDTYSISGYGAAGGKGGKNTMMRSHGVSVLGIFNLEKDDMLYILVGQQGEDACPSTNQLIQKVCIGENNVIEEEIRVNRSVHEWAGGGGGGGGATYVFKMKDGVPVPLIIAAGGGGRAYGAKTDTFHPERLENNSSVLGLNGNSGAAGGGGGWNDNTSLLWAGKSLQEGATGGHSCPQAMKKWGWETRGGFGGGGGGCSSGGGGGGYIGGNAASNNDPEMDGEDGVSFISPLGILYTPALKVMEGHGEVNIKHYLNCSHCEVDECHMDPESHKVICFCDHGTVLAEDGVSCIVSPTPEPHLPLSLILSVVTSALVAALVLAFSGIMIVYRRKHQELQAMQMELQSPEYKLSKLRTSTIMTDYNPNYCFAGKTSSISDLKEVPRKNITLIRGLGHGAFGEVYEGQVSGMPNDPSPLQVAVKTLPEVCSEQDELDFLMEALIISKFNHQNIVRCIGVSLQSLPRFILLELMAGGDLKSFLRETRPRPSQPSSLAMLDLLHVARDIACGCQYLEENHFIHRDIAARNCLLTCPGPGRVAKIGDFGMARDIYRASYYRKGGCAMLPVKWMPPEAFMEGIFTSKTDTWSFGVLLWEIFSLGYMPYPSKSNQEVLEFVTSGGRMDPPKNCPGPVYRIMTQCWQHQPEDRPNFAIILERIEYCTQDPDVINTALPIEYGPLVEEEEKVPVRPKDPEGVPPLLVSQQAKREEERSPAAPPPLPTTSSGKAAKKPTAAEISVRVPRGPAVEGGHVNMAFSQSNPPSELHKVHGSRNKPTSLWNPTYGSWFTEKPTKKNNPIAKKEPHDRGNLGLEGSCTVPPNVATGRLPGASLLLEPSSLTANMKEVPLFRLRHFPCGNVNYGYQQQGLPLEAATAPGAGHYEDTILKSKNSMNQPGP
Method: 2. ALK Kinase Activity Inhibition Experiment: Method 1: In vitro enzymatic activity of ALK was measured using Caliper mobility shift assay. […] Add 10 μL of 2.5-fold enzyme solution and incubate at room temperature for 10 minutes, then add 10 μL of 2.5-fold substrates (Peptide FAM-P22 and ATP) solution. […] Read conversion rate data on Caliper EZ Reader II (Caliper Life Sciences). Convert the conversion rate into inhibition rate (% inhibition=(max−conversion rate)/(max−min)*100). Max refers to the conversion rate of the DMSO control, and min refers to the conversion rate without enzyme activity. With the compound concentration and inhibition rate on the abscissa and ordinate, draw the curve, use XLFit excel add-in version 5.4.0.8 software to fit the curve and calculate the IC50.

[8] = 700 cells/well, 72 h, read-out: Ba/F3_EGFR (del19-T790M-C797S) cell proliferation inhibition (IC50 value) Method 1

EGFR (T790M/L858R/C797S), sequence (P00533 25-1210 T790M/C797S/L858R): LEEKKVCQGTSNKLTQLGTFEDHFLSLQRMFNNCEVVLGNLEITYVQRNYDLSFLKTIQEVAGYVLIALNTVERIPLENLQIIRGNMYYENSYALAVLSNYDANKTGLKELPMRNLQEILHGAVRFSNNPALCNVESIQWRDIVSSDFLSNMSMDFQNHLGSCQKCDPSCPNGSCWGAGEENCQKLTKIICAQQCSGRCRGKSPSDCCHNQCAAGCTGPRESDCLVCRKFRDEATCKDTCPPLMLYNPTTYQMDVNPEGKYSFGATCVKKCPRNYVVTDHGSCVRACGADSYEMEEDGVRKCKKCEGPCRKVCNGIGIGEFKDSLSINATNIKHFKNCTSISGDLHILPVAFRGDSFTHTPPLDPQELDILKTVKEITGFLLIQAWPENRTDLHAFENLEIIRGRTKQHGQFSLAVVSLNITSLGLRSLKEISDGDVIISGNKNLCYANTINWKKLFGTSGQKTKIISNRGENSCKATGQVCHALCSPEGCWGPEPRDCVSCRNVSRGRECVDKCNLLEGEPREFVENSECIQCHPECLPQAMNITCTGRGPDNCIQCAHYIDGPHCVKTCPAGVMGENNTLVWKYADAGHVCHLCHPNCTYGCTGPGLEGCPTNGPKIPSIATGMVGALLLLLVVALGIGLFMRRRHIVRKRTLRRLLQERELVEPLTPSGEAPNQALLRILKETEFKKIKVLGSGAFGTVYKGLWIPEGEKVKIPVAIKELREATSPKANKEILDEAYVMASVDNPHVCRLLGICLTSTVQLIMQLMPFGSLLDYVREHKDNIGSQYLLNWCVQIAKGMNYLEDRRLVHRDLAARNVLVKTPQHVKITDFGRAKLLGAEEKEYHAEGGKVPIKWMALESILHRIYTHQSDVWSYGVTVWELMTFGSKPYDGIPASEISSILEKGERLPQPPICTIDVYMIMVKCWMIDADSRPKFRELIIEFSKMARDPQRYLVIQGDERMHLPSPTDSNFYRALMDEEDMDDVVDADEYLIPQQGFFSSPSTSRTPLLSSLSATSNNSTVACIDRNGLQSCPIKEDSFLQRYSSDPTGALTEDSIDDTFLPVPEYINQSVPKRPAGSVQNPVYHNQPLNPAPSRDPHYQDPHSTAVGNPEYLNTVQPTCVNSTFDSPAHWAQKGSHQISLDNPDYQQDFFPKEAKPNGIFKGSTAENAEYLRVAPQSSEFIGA

Row | SMILES | IC50 [1] [nM] | IC50 [2] [nM] | GI50 [3] [nM] | Cmax [4] [ng/mL] | Tmax [4] [h] | half-life [4] [h] | AUC(0-t) [4] [ng·h/mL] | GI50 [5, 8] [nM] | IC50 [6] [nM] | IC50 [7] [nM] | GI50 ([5]; read-out: Ba/F3_EGFR (del19-T790M-C797S) cell proliferation inhibition (IC50 value) Method 1, 700 cells/well, 72 h) [nM]
1 | COc1cc(N2CCC(N3CCN(C)CC3)CC2)ccc1Nc1ncc(Cl)c(Nc2ccccc2P(C)(C)=O)n1 [Brigatinib, reference compound] |  | 10 to 100 | > 200 |  |  |  |  |  |  |  | 100 to 200
2 | CP(C)(=O)c1ccccc1Nc1nc(Nc2ccc3c(c2)OC[C@H]2CN(c4ccccc4)CCN32)ncc1Cl [Compound 16R] | 15 to 100 | 1 to 10 |  |  |  |  |  |  | 50 to 250 | 50 to 250 | 
3 | CP(C)(=O)c1ccccc1Nc1nc(Nc2ccc3c(c2)OC[C@H]2CN(C4CCNCC4)CCN32)ncc1Cl [Compound 21R] | < 3 | ≤ 1 |  |  |  |  |  | > 200 |  |  | 
4 | Cc1cc(Nc2ncc(Cl)c(Nc3ccccc3P(C)(C)=O)n2)cc2c1OC[C@H]1CNCCN21 [Compound 24R] | 3 to 15 | 1 to 10 |  |  |  |  |  | 20 to 100 |  |  | 
5 | C=CC(=O)N1CCC(N2CCN3c4ccc(Nc5ncc(Cl)c(Nc6ccccc6P(C)(C)=O)n5)cc4OC[C@H]3C2)CC1 [Compound 22R] | 3 to 15 | ≤ 1 |  |  |  |  |  | < 20 |  |  | 
6 | CP(C)(=O)c1ccccc1Nc1nc(Nc2ccc3c(c2)OC[C@H]2COCCN32)ncc1Cl [Compound 12R] |  | ≤ 1 |  |  |  |  |  | 20 to 100 | 50 to 250 | 50 to 250 | 

Further lines, with some results ahead:

Row | IC50 [1] [nM] | IC50 [2] [nM] | GI50 [3] [nM] | Cmax [4] [ng/mL] | Tmax [4] [h] | half-life [4] [h] | AUC(0-t) [4] [ng·h/mL] | GI50 [5, 8] [nM] | IC50 [6] [nM] | IC50 [7] [nM] | SMILES | GI50 ([5]; read-out: Ba/F3_EGFR (del19-T790M-C797S) cell proliferation inhibition (IC50 value) Method 1, 700 cells/well, 72 h) [nM]
7 | < 3 | ≤ 1 | 20 to 100 | 120 | 7.33 | 3.88 | 1780 |  |  |  | Cc1cc(Nc2ncc(Cl)c(Nc3ccccc3P(C)(C)=O)n2)cc2c1N1CCN(C3CCN(C4CC4)CC3)C[C@@H]1CO2 [Compound 33R] | 
8 | 3 to 15 | ≤ 1 |  |  |  |  |  | 20 to 100 |  |  | C=CC(=O)Nc1cc(Nc2ncc(Cl)c(Nc3ccccc3P(C)(C)=O)n2)cc2c1N1CCN(C)C[C@@H]1CO2 [Compound 29R] | 
9 | < 3 | ≤ 1 | 20 to 100 | 15 | 4.33 | 3.97 | 179 |  |  |  | CN1CCC(N2CCN3c4c(F)cc(Nc5ncc(Cl)c(Nc6ccccc6P(C)(C)=O)n5)cc4OC[C@@H]3C2)CC1 [Compound 35S] | 
10 | < 3 | ≤ 1 |  | 352 | 3.33 | 2.22 | 3260 | 20 to 100 |  |  | CC(=O)N1CCC(N2CCN3c4c(C)cc(Nc5ncc(Cl)c(Nc6ccccc6P(C)(C)=O)n5)cc4OC[C@@H]3C2)CC1 [Compound 32S] | 
11 | < 3 | ≤ 1 |  |  |  |  |  | < 20 |  |  | Cc1cc(Nc2ncc(Cl)c(Nc3ccccc3P(C)(C)=O)n2)cc2c1N1CCNC[C@H]1CO2 [Compound 23S] | 
12 | < 3 | ≤ 1 | < 20 |  |  |  |  |  |  |  | Cc1cc(Nc2ncc(Cl)c(Nc3ccccc3P(C)(C)=O)n2)cc2c1N1CCN(C3CN(C)C3)C[C@H]1CO2 [Compound 34S] | 
13 | < 3 | ≤ 1 |  |  |  |  |  | 100 to 200 |  |  | CN(C)C/C=C/C(=O)N1CCN2c3ccc(Nc4ncc(Cl)c(Nc5ccccc5P(C)(C)=O)n4)cc3OC[C@H]2C1 [Compound 18R] | 
